Data taken from patent US20230389548A1, “MIXTURES OF PYRIMIDINES AS HERBICIDAL COMPOSITIONS” (SYNGENTA CROP PROTECTION AG, priority 2020, published 2023).

Columns and labels:
Assay in all cases: Post-emergence glasshouse spray test, visual percentage phytotoxicity after 13 days
Format in all cases: in vivo
[1] = system: Abutilon threophrasti (ABUTH); conditions: for ABUTH percentage phytotoxicity: B1
Outline: (§1)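 Plants grown 8 days in glasshouse pots, then sprayed post-emergence at 500 l/Ha with compound, alone or in mixture, in IF50-based formulation diluted in 0.2% Genapol XO80. Phytotoxicity scored visually (0–100) after 13 days against untreated controls, 2–4 replicates in randomised blocks; expected mixture effects by Colby formula.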

[2] = system: Alopecurus myosuroides (ALOMY); conditions: for ALOMY percentage phytotoxicity: B1
Outline: as §1

[3] = system: Amaranthus retroflexus (AMARE); conditions: for AMARE percentage phytotoxicity: B1
Outline: as §1

[4] = system: Chenopodium album (CHEAL); conditions: for CHEAL percentage phytotoxicity: B1
Outline: as §1

[5] = system: Digitaria sanguinalis (DIGSA); conditions: for DIGSA percentage phytotoxicity: B1
Outline: as §1

[6] = system: Echinochloa crus-galli (ECHCG)
Outline: as §1

[7] = system: Ipomoea hederacea (IPOHE); conditions: for IPOHE percentage phytotoxicity: B1
Outline: as §1

[8] = system: Lolium perenne (LOLPE); conditions: for LOLPE percentage phytotoxicity: B1
Outline: as §1

[9] = system: Setaria faberi (SETFA); conditions: for SETFA percentage phytotoxicity: B1
Outline: as §1

[10] = system: Stellaria media (STEME); conditions: for STEME percentage phytotoxicity: B1
Outline: as §1

SMILES: FC(F)c1cc(-c2c(Cl)cccc2Oc2ncc(Cl)cn2)on1 [A-I]
- ABUTH percentage phytotoxicity ([1]; 0.625 g/ha post-emergence): 15%
- ABUTH percentage phytotoxicity ([1]; 1.25 g/ha post-emergence): 41%
- ABUTH percentage phytotoxicity ([1]; 2.5 g/ha post-emergence): 49%
- ABUTH percentage phytotoxicity ([1]; 5 g/ha post-emergence): 68%
- ABUTH percentage phytotoxicity ([1]; 10 g/ha post-emergence): 68%
- Observed phytotoxicity ABUTH ([1]; B2.1.7, 1.25 g/ha post-emergence): 8%
- Observed phytotoxicity ABUTH ([1]; B2.1.7, 2.5 g/ha post-emergence): 25%
- Observed phytotoxicity ABUTH ([1]; B2.4.6, 0.625 g/ha post-emergence): 15%
- ALOMY percentage phytotoxicity ([2]; 0.625 g/ha post-emergence): 5%
- ALOMY percentage phytotoxicity ([2]; 1.25 g/ha post-emergence): 11%
- ALOMY percentage phytotoxicity ([2]; 2.5 g/ha post-emergence): 10%
- ALOMY percentage phytotoxicity ([2]; 5 g/ha post-emergence): 43%
- ALOMY percentage phytotoxicity ([2]; 10 g/ha post-emergence): 41%
- Observed phytotoxicity ALOMY ([2]; B2.2.5, 5 g/ha post-emergence): 14%
- Observed phytotoxicity ALOMY ([2]; B2.3.5, 1.25 g/ha post-emergence): 1%
- Observed phytotoxicity ALOMY ([2]; B2.4.4, 10 g/ha post-emergence): 41%
- AMARE percentage phytotoxicity ([3]; 0.625 g/ha post-emergence): 60%
- AMARE percentage phytotoxicity ([3]; 1.25 g/ha post-emergence): 70%
- AMARE percentage phytotoxicity ([3]; 2.5 g/ha post-emergence): 98%
- AMARE percentage phytotoxicity ([3]; 5 g/ha post-emergence): 98%
- AMARE percentage phytotoxicity ([3]; 10 g/ha post-emergence): 100%
- Observed phytotoxicity AMARE ([3]; B2.1.5, 1.25 g/ha post-emergence): 55%
- Observed phytotoxicity AMARE ([3]; B2.2.6, 0.625 g/ha post-emergence): 51%
- Observed phytotoxicity AMARE ([3]; B2.2.6, 1.25 g/ha post-emergence): 76%
- Observed phytotoxicity AMARE ([3]; B2.4.8, 1.25 g/ha post-emergence): 70%
- CHEAL percentage phytotoxicity ([4]; 0.625 g/ha post-emergence): 48%
- CHEAL percentage phytotoxicity ([4]; 1.25 g/ha post-emergence): 53%
- CHEAL percentage phytotoxicity ([4]; 2.5 g/ha post-emergence): 79%
- CHEAL percentage phytotoxicity ([4]; 5 g/ha post-emergence): 76%
- CHEAL percentage phytotoxicity ([4]; 10 g/ha post-emergence): 78%
- Observed phytotoxicity CHEAL ([4]; B2.1.6, 1.25 g/ha post-emergence): 45%
- Observed phytotoxicity CHEAL ([4]; B2.4.7, 1.25 g/ha post-emergence): 53%
- DIGSA percentage phytotoxicity ([5]; 0.625 g/ha post-emergence): 6%
- DIGSA percentage phytotoxicity ([5]; 1.25 g/ha post-emergence): 25%
- DIGSA percentage phytotoxicity ([5]; 2.5 g/ha post-emergence): 34%
- DIGSA percentage phytotoxicity ([5]; 5 g/ha post-emergence): 63%
- DIGSA percentage phytotoxicity ([5]; 10 g/ha post-emergence): 78%
- Observed phytotoxicity DIGSA ([5]; B2.2.3, 5 g/ha post-emergence): 48%
- Observed phytotoxicity DIGSA ([5]; B2.3.3, 0.625 g/ha post-emergence): 3%
- Observed phytotoxicity DIGSA ([5]; B2.3.3, 1.25 g/ha post-emergence): 9%
- Observed phytotoxicity DIGSA ([5]; B2.4.2, 2.5 g/ha post-emergence): 34%
- Observed phytotoxicity DIGSA ([5]; B2.4.2, 5 g/ha post-emergence): 63%
- Observed phytotoxicity DIGSA ([5]; B2.4.2, 10 g/ha post-emergence): 78%
- Observed phytotoxicity DIGSA ([5]; B2.5.1, 2.5 g/ha post-emergence): 34%
- Observed phytotoxicity DIGSA ([5]; B2.6.2, 0.625 g/ha post-emergence): 6%
- Observed phytotoxicity DIGSA ([5]; B2.6.2, 2.5 g/ha post-emergence): 34%
- Observed phytotoxicity DIGSA ([5]; B2.6.2, 10 g/ha post-emergence): 78%
- Observed phytotoxicity ECHCG ([6]; B2.1.2, 0.625 g/ha post-emergence): 8%
- Observed phytotoxicity ECHCG ([6]; B2.1.2, 5 g/ha post-emergence): 20%
- Observed phytotoxicity ECHCG ([6]; B2.2.2, 0.625 g/ha post-emergence): 0%
- Observed phytotoxicity ECHCG ([6]; B2.2.2, 1.25 g/ha post-emergence): 34%
- Observed phytotoxicity ECHCG ([6]; B2.2.2, 5 g/ha post-emergence): 10%
- Observed phytotoxicity ECHCG ([6]; B2.3.2, 0.625 g/ha post-emergence): 0%
- Observed phytotoxicity ECHCG ([6]; B2.3.2, 1.25 g/ha post-emergence): 4%
- Observed phytotoxicity ECHCG ([6]; B2.3.2, 5 g/ha post-emergence): 10%
- IPOHE percentage phytotoxicity ([7]; 0.625 g/ha post-emergence): 32%
- IPOHE percentage phytotoxicity ([7]; 1.25 g/ha post-emergence): 50%
- IPOHE percentage phytotoxicity ([7]; 2.5 g/ha post-emergence): 80%
- IPOHE percentage phytotoxicity ([7]; 5 g/ha post-emergence): 79%
- IPOHE percentage phytotoxicity ([7]; 10 g/ha post-emergence): 60%
- Observed phytotoxicity IPOHE ([7]; B2.3.6, 0.625 g/ha post-emergence): 24%
- Observed phytotoxicity IPOHE ([7]; B2.4.5, 10 g/ha post-emergence): 60%
- Observed phytotoxicity IPOHE ([7]; B2.6.4, 10 g/ha post-emergence): 60%
- LOLPE percentage phytotoxicity ([8]; 0.625 g/ha post-emergence): 4%
- LOLPE percentage phytotoxicity ([8]; 1.25 g/ha post-emergence): 5%
- LOLPE percentage phytotoxicity ([8]; 2.5 g/ha post-emergence): 8%
- LOLPE percentage phytotoxicity ([8]; 5 g/ha post-emergence): 43%
- LOLPE percentage phytotoxicity ([8]; 10 g/ha post-emergence): 30%
- Observed phytotoxicity LOLPE ([8]; B2.1.1, 0.625 g/ha post-emergence): 0%
- Observed phytotoxicity LOLPE ([8]; B2.1.1, 1.25 g/ha post-emergence): 0%
- Observed phytotoxicity LOLPE ([8]; B2.2.4, 1.25 g/ha post-emergence): 0%
- Observed phytotoxicity LOLPE ([8]; B2.2.4, 2.5 g/ha post-emergence): 0%
- Observed phytotoxicity LOLPE ([8]; B2.2.4, 5 g/ha post-emergence): 14%
- Observed phytotoxicity LOLPE ([8]; B2.3.4, 1.25 g/ha post-emergence): 0%
- Observed phytotoxicity LOLPE ([8]; B2.3.4, 2.5 g/ha post-emergence): 0%
- Observed phytotoxicity LOLPE ([8]; B2.4.3, 10 g/ha post-emergence): 30%
- Observed phytotoxicity LOLPE ([8]; B2.5.2, 5 g/ha post-emergence): 21%
- Observed phytotoxicity LOLPE ([8]; B2.5.2, 10 g/ha post-emergence): 30%
- Observed phytotoxicity LOLPE ([8]; B2.6.3, 10 g/ha post-emergence): 30%
- SETFA percentage phytotoxicity ([9]; 0.625 g/ha post-emergence): 7%
- SETFA percentage phytotoxicity ([9]; 1.25 g/ha post-emergence): 13%
- SETFA percentage phytotoxicity ([9]; 2.5 g/ha post-emergence): 29%
- SETFA percentage phytotoxicity ([9]; 5 g/ha post-emergence): 53%
- SETFA percentage phytotoxicity ([9]; 10 g/ha post-emergence): 65%
- Observed phytotoxicity SETFA ([9]; B2.1.3, 5 g/ha post-emergence): 40%
- Observed phytotoxicity SETFA ([9]; B2.2.1, 1.25 g/ha post-emergence): 8%
- Observed phytotoxicity SETFA ([9]; B2.2.1, 2.5 g/ha post-emergence): 14%
- Observed phytotoxicity SETFA ([9]; B2.2.1, 5 g/ha post-emergence): 51%
- Observed phytotoxicity SETFA ([9]; B2.3.1, 0.625 g/ha post-emergence): 3%
- Observed phytotoxicity SETFA ([9]; B2.3.1, 1.25 g/ha post-emergence): 8%
- Observed phytotoxicity SETFA ([9]; B2.3.1, 2.5 g/ha post-emergence): 14%
- Observed phytotoxicity SETFA ([9]; B2.4.1, 2.5 g/ha post-emergence): 29%
- Observed phytotoxicity SETFA ([9]; B2.6.1, 0.625 g/ha post-emergence): 7%
- Observed phytotoxicity SETFA ([9]; B2.6.1, 2.5 g/ha post-emergence): 29%
- STEME percentage phytotoxicity ([10]; 0.625 g/ha post-emergence): 44%
- STEME percentage phytotoxicity ([10]; 1.25 g/ha post-emergence): 60%
- STEME percentage phytotoxicity ([10]; 2.5 g/ha post-emergence): 88%
- STEME percentage phytotoxicity ([10]; 5 g/ha post-emergence): 99%
- STEME percentage phytotoxicity ([10]; 10 g/ha post-emergence): 98%
- Observed phytotoxicity STEME ([10]; B2.1.4, 1.25 g/ha post-emergence): 40%
- Observed phytotoxicity STEME ([10]; B2.3.7, 0.625 g/ha post-emergence): 29%
- Observed phytotoxicity STEME ([10]; B2.6.5, 0.625 g/ha post-emergence): 44%
